Results published in ChEMBL document CHEMBL5137080, “Discovery of Novel 7-Hydroxy-5-oxo-4,5-dihydrothieno[3,2-b]pyridine-6-carboxamide Derivatives with Potent and Selective Antifungal Activity against Cryptococcus Species” (J Med Chem, 2022).
pIC50: −log10 of the molar value.

Legend:
Candida parapsilosis [1] = test: Antifungal activity against Candida parapsilosis ATCC22019 assessed as fungal growth inhibition incubated for 48 hrs by broth microdilution method; type: functional; details: Lodderomyces parapsilosis
[2] = system: Cryptococcus deuterogattii; test: Antifungal activity against Cryptococcus gattii WM178 assessed as fungal growth inhibition incubated for 72 hrs in presence of Fluconazole by broth microdilution method; type: functional, Cryptococcus gattii species complex
Cryptococcus gattii [3] = test: Antifungal activity against Cryptococcus gattii WM179 assessed as fungal growth inhibition incubated for 72 hrs in presence of Fluconazole by broth microdilution method; type: functional, Cryptococcus gattii species complex
Candida albicans [4] = test: Antifungal activity against Candida albicans SC5314 assessed as fungal growth inhibition incubated for 48 hrs in presence of Fluconazole by broth microdilution method; type: functional
Candida parapsilosis [5] = test: Antifungal activity against Candida parapsilosis ATCC22019 assessed as fungal growth inhibition incubated for 48 hrs in presence of Fluconazole by broth microdilution method; type: functional; details: Lodderomyces parapsilosis
Cryptococcus neoformans [6] = test: Antifungal activity against Cryptococcus neoformans clinical isolate 56992 assessed as fungal growth inhibition incubated for 72 hrs in presence of Fluconazole by broth microdilution method; type: functional
Cryptococcus neoformans [7] = test: Antifungal activity against Cryptococcus neoformans clinical isolate HN2-40 assessed as fungal growth inhibition incubated for 72 hrs in presence of Fluconazole by broth microdilution method; type: functional
Cryptococcus neoformans [8] = test: Antifungal activity against Cryptococcus neoformans clinical isolate 443 assessed as fungal growth inhibition incubated for 72 hrs in presence of Fluconazole by broth microdilution method; type: functional
Cryptococcus neoformans [9] = test: Antifungal activity against Cryptococcus neoformans clinical isolate 444 assessed as fungal growth inhibition incubated for 72 hrs in presence of Fluconazole by broth microdilution method; type: functional
[10] = system: Cryptococcus gattii species complex; test: Antifungal activity against Cryptococcus gattii clinical isolate SCZ20024 assessed as fungal growth inhibition incubated for 72 hrs in presence of Fluconazole by broth microdilution method; type: functional
[11] = system: Cryptococcus gattii species complex; test: Antifungal activity against Cryptococcus gattii clinical isolate SCZ20031 assessed as fungal growth inhibition incubated for 72 hrs in presence of Fluconazole by broth microdilution method; type: functional
Cryptococcus neoformans [12] = test: Synergistic antifungal activity against Cryptococcus neoformans H99 assessed as fractional inhibitory concentration index incubated for 72 hrs in presence of Fluconazole by broth microdilution method; type: functional
[Candida] auris = Synergistic antifungal activity against Candida auris CBS 12372 assessed as fractional inhibitory concentration index incubated for 48 hrs in presence of Fluconazole by broth microdilution method; type: functional, Candidozyma auris
Cryptococcus neoformans [13] = test: Synergistic antifungal activity against Cryptococcus neoformans clinical isolate HN1 assessed as fractional inhibitory concentration index incubated for 72 hrs in presence of Fluconazole by broth microdilution method; type: functional
Cryptococcus neoformans [14] = test: Synergistic antifungal activity against Cryptococcus neoformans clinical isolate HN15 assessed as fractional inhibitory concentration index incubated for 72 hrs in presence of Fluconazole by broth microdilution method; type: functional
Cryptococcus neoformans [15] = test: Antifungal activity against Cryptococcus neoformans H99 infected in Wax moth larvae assessed as survival rate at 10 mg/kg measured after 9 days in presence of Fluconazole by Kaplan-Meier method; type: functional; details: H99, 216 h, time 9 day
[16] = C0 in Sprague-Dawley rat at 2 mg/kg,iv by LC-MS/MS analysis; type: ADME, organism-based; details: in vivo
[17] = Oral bioavailability in Sprague-Dawley rat at 5 mg/kg by LC-MS/MS analysis; type: ADME, organism-based; details: in vivo
[18] = Selectivity index, ratio of IC50 for human HUVEC to MIC for antifungal activity against Cryptococcus neoformans; type: toxicity; details: HUVEC cells, read-out: Selectivity Index
[19] = Selectivity index, ratio of IC50 for rabbit RBC to MIC for antifungal activity against Cryptococcus neoformans; type: toxicity; details: red blood cells, read-out: Selectivity Index
[20] = molecular target: Voltage-gated inwardly rectifying potassium channel KCNH2 (Homo sapiens, UniProt Q12809); test: Inhibition of human […] potassium channel by automated patch clamp electrophysiology; type: toxicity
Sequence of Voltage-gated inwardly rectifying potassium channel KCNH2 (Q12809 whole entry): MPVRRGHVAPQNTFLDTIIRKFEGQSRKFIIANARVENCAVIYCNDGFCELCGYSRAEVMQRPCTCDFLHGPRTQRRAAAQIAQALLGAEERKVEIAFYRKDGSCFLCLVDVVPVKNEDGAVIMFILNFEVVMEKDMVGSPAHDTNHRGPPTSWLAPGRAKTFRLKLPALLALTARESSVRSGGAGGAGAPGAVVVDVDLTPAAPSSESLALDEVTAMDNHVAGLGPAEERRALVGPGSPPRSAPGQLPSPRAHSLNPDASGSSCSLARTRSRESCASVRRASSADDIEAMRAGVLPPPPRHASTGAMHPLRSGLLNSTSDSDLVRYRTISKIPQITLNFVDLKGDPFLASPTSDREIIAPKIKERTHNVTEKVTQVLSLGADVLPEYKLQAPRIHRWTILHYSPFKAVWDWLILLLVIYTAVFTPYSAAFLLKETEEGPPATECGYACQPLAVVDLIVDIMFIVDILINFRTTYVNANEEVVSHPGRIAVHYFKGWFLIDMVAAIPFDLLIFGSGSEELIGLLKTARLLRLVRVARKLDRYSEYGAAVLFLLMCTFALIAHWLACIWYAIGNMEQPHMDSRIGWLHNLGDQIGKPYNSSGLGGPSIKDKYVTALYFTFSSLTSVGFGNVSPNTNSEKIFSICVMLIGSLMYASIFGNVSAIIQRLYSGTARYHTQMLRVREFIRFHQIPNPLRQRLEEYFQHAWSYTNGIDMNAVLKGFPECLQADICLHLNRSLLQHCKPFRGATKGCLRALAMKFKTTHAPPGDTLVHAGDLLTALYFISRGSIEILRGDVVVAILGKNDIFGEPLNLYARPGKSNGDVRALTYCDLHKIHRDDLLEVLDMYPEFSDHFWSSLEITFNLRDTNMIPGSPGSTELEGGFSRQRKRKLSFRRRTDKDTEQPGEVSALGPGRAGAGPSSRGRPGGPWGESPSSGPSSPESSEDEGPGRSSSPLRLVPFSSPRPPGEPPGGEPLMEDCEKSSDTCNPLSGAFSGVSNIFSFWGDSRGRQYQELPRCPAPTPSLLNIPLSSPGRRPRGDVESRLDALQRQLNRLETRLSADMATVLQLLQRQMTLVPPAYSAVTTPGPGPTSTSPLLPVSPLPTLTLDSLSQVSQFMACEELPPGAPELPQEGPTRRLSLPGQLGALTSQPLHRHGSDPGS

Cryptococcus neoformans [21] = test: Antifungal activity against Cryptococcus neoformans H99 assessed as fungal growth inhibition incubated for 72 hrs in presence of P163-0892 by broth microdilution method; type: functional
Cryptococcus gattii [22] = test: Antifungal activity against Cryptococcus gattii WM179 assessed as fungal growth inhibition incubated for 72 hrs in presence of P163-0892 by broth microdilution method; type: functional, Cryptococcus gattii species complex
Candida albicans [23] = test: Antifungal activity against Candida albicans SC5314 assessed as fungal growth inhibition incubated for 48 hrs in presence of P163-0892 by broth microdilution method; type: functional
Nakaseomyces glabratus [24] = test: Antifungal activity against Candida glabrata ATCC1182 assessed as fungal growth inhibition incubated for 48 hrs in presence of P163-0892 by broth microdilution method; type: functional
Candida tropicalis = test: Antifungal activity against Candida tropicalis ATCC20026 assessed as fungal growth inhibition incubated for 48 hrs in presence of P163-0892 by broth microdilution method; type: functional
Cryptococcus neoformans [25] = test: Antifungal activity against Cryptococcus neoformans clinical isolate HN1 assessed as fungal growth inhibition incubated for 72 hrs in presence of P163-0892 by broth microdilution method; type: functional
Cryptococcus neoformans [26] = test: Antifungal activity against Cryptococcus neoformans clinical isolate HN17 assessed as fungal growth inhibition incubated for 72 hrs in presence of P163-0892 by broth microdilution method; type: functional
Cryptococcus neoformans [27] = test: Antifungal activity against Cryptococcus neoformans clinical isolate HN19 assessed as fungal growth inhibition incubated for 72 hrs in presence of P163-0892 by broth microdilution method; type: functional
Cryptococcus neoformans [28] = test: Antifungal activity against Cryptococcus neoformans clinical isolate 443 assessed as fungal growth inhibition incubated for 72 hrs in presence of P163-0892 by broth microdilution method; type: functional
[29] = system: Cryptococcus gattii species complex; test: Antifungal activity against Cryptococcus gattii clinical isolate SCZ20024 assessed as fungal growth inhibition incubated for 72 hrs in presence of P163-0892 by broth microdilution method; type: functional
Cryptococcus neoformans [30] = test: Synergistic antifungal activity against Cryptococcus neoformans H99 assessed as fractional inhibitory concentration index incubated for 72 hrs in presence of P163-0892 by broth microdilution method; type: functional
Nakaseomyces glabratus [31] = test: Synergistic antifungal activity against Candida glabrata ATCC1182 assessed as fractional inhibitory concentration index incubated for 48 hrs in presence of P163-0892 by broth microdilution method; type: functional
Candida parapsilosis [32] = test: Synergistic antifungal activity against Candida parapsilosis ATCC22019 assessed as fractional inhibitory concentration index incubated for 48 hrs in presence of P163-0892 by broth microdilution method; type: functional
Cryptococcus neoformans [33] = test: Synergistic antifungal activity against Cryptococcus neoformans clinical isolate HN15 assessed as fractional inhibitory concentration index incubated for 72 hrs in presence of P163-0892 by broth microdilution method; type: functional
Cryptococcus neoformans [34] = test: Synergistic antifungal activity against Cryptococcus neoformans clinical isolate HN17 assessed as fractional inhibitory concentration index incubated for 72 hrs in presence of P163-0892 by broth microdilution method; type: functional
Cryptococcus neoformans [35] = test: Synergistic antifungal activity against Cryptococcus neoformans clinical isolate HN20 assessed as fractional inhibitory concentration index incubated for 72 hrs in presence of P163-0892 by broth microdilution method; type: functional
Cryptococcus neoformans [36] = test: Synergistic antifungal activity against Cryptococcus neoformans clinical isolate 443 assessed as fractional inhibitory concentration index incubated for 72 hrs in presence of P163-0892 by broth microdilution method; type: functional
Cryptococcus neoformans [37] = test: Synergistic antifungal activity against Cryptococcus neoformans clinical isolate 444 assessed as fractional inhibitory concentration index incubated for 72 hrs in presence of P163-0892 by broth microdilution method; type: functional

SMILES: CCCCNC(=O)c1c(O)c2sccc2n(Cc2ccccc2)c1=O
- MIC (Candida parapsilosis [1]): > 64 µg/mL
- MIC [2]: 0.0625 µg/mL
- MIC (Cryptococcus gattii [3]): 0.0625 µg/mL
- MIC (Candida albicans [4]): 1 µg/mL
- MIC (Candida parapsilosis [5]): 16 µg/mL
- MIC (Cryptococcus neoformans [6]): 0.125 µg/mL
- MIC (Cryptococcus neoformans [7]): 0.0313 µg/mL
- MIC (Cryptococcus neoformans [8]): 0.0313 µg/mL
- MIC (Cryptococcus neoformans [9]): 0.0156 µg/mL
- MIC [10]: 0.0313 µg/mL
- MIC [11]: 0.125 µg/mL
- fractional inhibitory concentration index (FICI) (Cryptococcus neoformans [12]): 0.375
- fractional inhibitory concentration index (FICI) ([Candida] auris): 1.008
- fractional inhibitory concentration index (FICI) (Cryptococcus neoformans [13]): 0.125
- fractional inhibitory concentration index (FICI) (Cryptococcus neoformans [14]): 0.313
- survival at 10 mg/kg (Cryptococcus neoformans [15]): 65%
- C0 [16]: 2460 ng/mL
- bioavailability [17]: 0.8%
- selectivity ratio [18]: > 256
- selectivity ratio [19]: > 256
- pIC50 [20]: 4.63

SMILES: OC(Cn1cncn1)(Cn1cncn1)c1ccc(F)cc1F [FLUCONAZOLE]
- MIC (Cryptococcus neoformans [21]): 2 µg/mL
- MIC (Cryptococcus gattii [22]): 0.5 µg/mL
- MIC (Candida albicans [23]): 1 µg/mL
- MIC (Nakaseomyces glabratus [24]): 4 µg/mL
- MIC (Candida tropicalis): 1 µg/mL
- MIC (Cryptococcus neoformans [25]): 0.125 µg/mL
- MIC (Cryptococcus neoformans [26]): 0.5 µg/mL
- MIC (Cryptococcus neoformans [27]): 1 µg/mL
- MIC (Cryptococcus neoformans [28]): 1 µg/mL
- MIC [29]: 1 µg/mL
- fractional inhibitory concentration index (FICI) (Cryptococcus neoformans [30]): 0.375
- fractional inhibitory concentration index (FICI) (Nakaseomyces glabratus [31]): 0.625
- fractional inhibitory concentration index (FICI) (Candida parapsilosis [32]): 0.625
- fractional inhibitory concentration index (FICI) (Cryptococcus neoformans [33]): 0.313
- fractional inhibitory concentration index (FICI) (Cryptococcus neoformans [34]): 0.156
- fractional inhibitory concentration index (FICI) (Cryptococcus neoformans [35]): 0.375
- fractional inhibitory concentration index (FICI) (Cryptococcus neoformans [36]): 0.156
- fractional inhibitory concentration index (FICI) (Cryptococcus neoformans [37]): 0.156
